Assay results taken from BindingDB's records for patent US20230270751 (Reviral, 2023).

Biological target: T1, Nucleoprotein (Human respiratory syncytial virus A (strain A2), UniProt P03418)
T1 sequence (P03418 whole entry): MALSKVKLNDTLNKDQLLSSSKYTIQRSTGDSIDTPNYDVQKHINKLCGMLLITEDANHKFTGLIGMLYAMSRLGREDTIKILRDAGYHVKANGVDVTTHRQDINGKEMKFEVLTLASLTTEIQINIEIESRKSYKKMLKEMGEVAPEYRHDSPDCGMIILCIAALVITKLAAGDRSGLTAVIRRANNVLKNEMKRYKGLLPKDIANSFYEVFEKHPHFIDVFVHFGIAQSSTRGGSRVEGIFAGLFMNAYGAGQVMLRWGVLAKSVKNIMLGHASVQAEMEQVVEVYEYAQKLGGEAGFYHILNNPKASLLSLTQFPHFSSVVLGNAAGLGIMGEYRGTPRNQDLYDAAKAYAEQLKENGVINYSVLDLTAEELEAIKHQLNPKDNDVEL
Assay: Not found
From the text: Not found

Row | SMILES | EC50 [nM]
1 | CN(C(=O)OC(C)(C)C)C1COc2c(C(=O)N[C@H]3N=C(c4ccccc4)c4cccc(F)c4NC3=O)c(-c3ccccc3F)nn2C1 (stereo not given in full) [US20230270751, Example 107] | 93
2 | O=C(N[C@H]1N=C(c2ccccc2)c2cccc(F)c2NC1=O)c1c(-c2ccccc2F)nn2c1OCC(CN1CCOCC1)C2 (stereo not given in full) [US20230270751, Example 173] | 91
3 | O=C(N[C@H]1N=C(c2ccccc2)c2cccc(F)c2NC1=O)c1c(-c2c(F)cccc2F)nn2c1OCCC2 [US20230270751, Example 196] | 25
4 | O=C(N[C@H]1N=C(c2ccccc2)c2cccc(F)c2NC1=O)c1c(-c2ccccc2F)nn2c1OCC(CN1CCCC1)C2 (stereo not given in full) [US20230270751, Example 182] | 78
5 | O=C(N[C@H]1N=C(c2ccccc2)c2cccc(F)c2NC1=O)c1c(-c2ccccc2F)nn2c1OCC(C1CC1)C2 (stereo not given in full) [US20230270751, Example 13] | 28
